# Results published in ChEMBL document CHEMBL1149799, “Bioactive peroxides as potential therapeutic agents” (Eur J Med Chem, 2008).
# What was measured:
# HT-29 = experiment: Cytotoxicity against human HT29 cells; type: functional, cell-based; details: for IC50 / EC50: Homo sapiens, HT-29; for EC50: read-out: ED50 (the source's name)
# P388 = experiment: Cytotoxicity against mouse P388 cells; type: functional, cell-based; details: for IC50 / EC50: Mus musculus, P388; for EC50: read-out: ED50 (the source's name)
# [1] = Cytotoxicity against human MEL28 cells; details: SK-MEL-28
# DU-145 = experiment: Cytotoxicity against human DU145 cells; type: functional, cell-based; details: Homo sapiens, DU-145
# A549 = experiment: Cytotoxicity against human A549 cells; type: functional, cell-based; details: for IC50 / EC50: Homo sapiens, A549; for EC50: read-out: ED50 (the source's name)
# [2] = Cytotoxicity against mouse Ehrlich Ascites carcinoma by trypan blue exclusion assay; type: functional
# KB = experiment: Cytotoxicity against human KB cells; type: functional, cell-based; details: for EC50: read-out: ED50 (the source's name)
# LoVo = experiment: Cytotoxicity against human LoVo cells; type: functional
# L1210 = experiment: Cytotoxicity against mouse L1210 cells; type: functional, cell-based; details: for IC50: Mus musculus, L1210
smiles,measurement,setting,value
C=CCC/C=C\C=C/CCCCCCCC[C@H]1CC[C@@H]([C@@H]2CC[C@@H](CC(=O)O)OO2)O1 [STOLONOXIDE A],IC50,HT-29,0.1 µg/mL
same,IC50,P388,0.01 µg/mL
same,IC50,[1],0.1 µg/mL
same,IC50,DU-145,0.1 µg/mL
same,IC50,A549,0.1 µg/mL
C[C@@H]1CC[C@@H]2[C@]34OO[C@@](C)(CC[C@@H]13)O[C@H]4OC(=O)[C@@]2(C)O,IC50,[2],> 125 µM
same,IC80,[2],> 125 µM
C=C1CC[C@H](OO)C(=C)CCC2=C(C(C)C)C(=O)C[C@]2(C)CC1=O,EC50,HT-29,0.31 µg/mL
same,EC50,P388,0.052 µg/mL
same,EC50,A549,0.56 µg/mL
C=C(CCC[C@@]1(C)CC[C@H]([C@H](C)C(=O)OC)OO1)CCC1(O)C(=C)CCCC1(C)C (some centres not stated) [TASNEMOXIDE C],IC50,HT-29,> 1 µg/mL
same,IC50,P388,> 1 µg/mL
same,IC50,A549,> 1 µg/mL
C=C(C)C(CC[C@@H](C)[C@H]1CC[C@H]2[C@@H]3CC=C4C[C@@H](O)CC[C@]4(C)[C@H]3CC[C@]12C)OO (some centres not stated),EC50,HT-29,0.43 µg/mL
same,EC50,P388,0.26 µg/mL
same,EC50,"KB; Homo sapiens, KB",0.33 µg/mL
same,EC50,A549,0.64 µg/mL
C=C1CCCC(C)(C)C1(O)CC[C@@]1(C)CC[C@@H]([C@H](C)C(=O)OC)OO1 (some centres not stated) [AIKUPIKOXIDE B],IC50,HT-29,> 1 µg/mL
same,IC50,P388,> 1 µg/mL
same,IC50,A549,> 1 µg/mL
C=C1C(=O)O[C@H]2[C@H]1[C@H](OC(C)=O)CC(=C)[C@H](OO)CC[C@@]1(C)O[C@H]21 [PEROXYFEROLIDE],EC50,"KB; Homo sapiens, KB",0.29 µg/mL
C[C@@H]1CCC2[C@@H](C)[C@H](O[C@@H]3O[C@H]4O[C@@]5(C)CC[C@@H]6[C@@H](C)CCC([C@@H]3C)[C@]46OO5)O[C@@H]3O[C@]4(C)CC[C@@H]1[C@@]23OO4 (some centres not stated),IC50,[2],1.4 µM
same,IC80,[2],2.4 µM
C=CC(CC[C@@H](C)[C@H]1CC[C@H]2[C@@H]3CC(=O)C4=CC(=O)CC[C@]4(C)[C@H]3CC[C@]12C)(OO)C(C)C (some centres not stated),EC50,HT-29,1.4 µg/mL
same,EC50,P388,0.8 µg/mL
same,EC50,"KB; Homo sapiens, KB",4 µg/mL
same,EC50,A549,2.5 µg/mL
C=C(CCC1=C(C)CCCC1(C)C)C(O)CC[C@@]1(C)CC[C@H]([C@H](C)C(=O)O)OO1 (some centres not stated) [TASNEMOXIDE B],IC50,HT-29,> 1 µg/mL
same,IC50,P388,> 1 µg/mL
same,IC50,A549,> 1 µg/mL
C=C(C)C(CC[C@@H](C)[C@H]1CC[C@H]2[C@@H]3CC(=O)C4=CC(=O)CC[C@]4(C)[C@H]3CC[C@]12C)OO (some centres not stated),EC50,HT-29,1.48 µg/mL
same,EC50,P388,0.53 µg/mL
same,EC50,"KB; Homo sapiens, KB",1.15 µg/mL
same,EC50,A549,0.88 µg/mL
CC(CC/C=C/CC/C=C/c1ccccc1)C[C@@]1(C)C[C@@](C)(CC(=O)O)OO1 (some centres not stated) [EPIPLAKINIC ACID D],MIC,KB; Homo sapiens,0.1 µg/mL
same,MIC,LoVo,0.1 µg/mL
same,IC50,L1210,0.017 µg/mL
COC(=O)C[C@@]1(C)C[C@](C)(CC(C)CCCCCCCCc2ccccc2)OO1 (some centres not stated) [EPIPLAKINIC ACID E],IC50,P388,2 µg/mL
same,IC50,A549,2.5 µg/mL
CO[C@H]1O[C@@H]2O[C@@]3(C)CC[C@H]4[C@H](C)CC[C@@H]([C@H]1C)[C@@]24OO3,IC80,[2],> 125 µM
CC(=O)[C@@H]1CC[C@@H](C)[C@@H]2CC[C@]3(C)OO[C@@]12C(=O)O3,IC50,[2],> 175 µM
same,IC80,[2],> 175 µM
CC(CC/C=C/CC/C=C/c1ccccc1)C[C@]1(C)C[C@@](C)(CC(=O)O)OO1 (some centres not stated) [PLAKINIC ACID D],MIC,KB; Homo sapiens,0.001 µg/mL
same,MIC,LoVo,0.001 µg/mL
same,IC50,L1210,0.026 µg/mL
CC1=C(CCC(C)(O)/C=C/C[C@@]2(C)CC[C@H]([C@H](C)C(=O)O)OO2)C(C)(C)CCC1 (some centres not stated) [TASNEMOXIDE A],IC50,HT-29,> 1 µg/mL
same,IC50,P388,> 1 µg/mL
same,IC50,A549,> 1 µg/mL
C=C(CCCC(C)(C)O)C(=O)CC[C@@]1(C)CC[C@@H]([C@H](C)C(=O)OC)OO1 [AIKUPIKOXIDE D],IC50,HT-29,> 1 µg/mL
same,IC50,P388,> 1 µg/mL
same,IC50,A549,> 1 µg/mL
C/C=C/C=C/CCCCCCCCCCCCC[C@@]1(OC)C=C[C@@H](CC(=O)OC)OO1 [XESTIN B],IC50,P388,3 µg/mL
CC/C=C/C(CC)CC(C)CC1(CC)C=C(CC)C(CC(=O)OC)OO1 (configuration not stated),IC50,P388,0.055 µg/mL
C=C(C)C(CC[C@@H](C)[C@H]1CC[C@H]2[C@@H]3C[C@@H](O)C4=CC(=O)CC[C@]4(C)[C@H]3CC[C@]12C)OO (some centres not stated),EC50,HT-29,0.47 µg/mL
same,EC50,P388,0.22 µg/mL
same,EC50,"KB; Homo sapiens, KB",0.79 µg/mL
same,EC50,A549,0.58 µg/mL
CC(C)(O)/C=C/C[C@@](C)(O)[C@H]1CC[C@@](C)([C@H]2CC[C@H]([C@]3(C)CC[C@H]([C@](C)(O)C/C=C/C(C)(C)OO)O3)O2)O1,IC50,"KB; Homo sapiens, KB",5.3 µg/mL
CC(CCCC/C=C/CC/C=C\c1ccccc1)C[C@]1(C)C[C@@](C)(CC(=O)O)OO1 (some centres not stated) [PLAKINIC ACID C],MIC,KB; Homo sapiens,0.01 µg/mL
same,MIC,LoVo,0.1 µg/mL
same,IC50,L1210,0.017 µg/mL
C[C@H](C/C=C/C(C)(C)OO)[C@H]1CC[C@H]2[C@@H]3C[C@@H](O)C4=CC(=O)CC[C@]4(C)[C@H]3CC[C@]12C,EC50,HT-29,0.63 µg/mL
same,EC50,P388,0.28 µg/mL
same,EC50,"KB; Homo sapiens, KB",0.4 µg/mL
same,EC50,A549,1 µg/mL
C=CC(CC[C@@H](C)[C@H]1CC[C@H]2[C@@H]3C[C@@H](O)C4=CC(=O)CC[C@]4(C)[C@H]3CC[C@]12C)(OO)C(C)C (some centres not stated),EC50,HT-29,0.43 µg/mL
same,EC50,P388,0.4 µg/mL
same,EC50,"KB; Homo sapiens, KB",1.8 µg/mL
same,EC50,A549,0.64 µg/mL
COC(=O)C[C@]1(C)C[C@@](C)(CC(C)CCCC/C=C/CC/C=C\c2ccccc2)OO1 (some centres not stated),MIC,KB; Homo sapiens,1 µg/mL
same,MIC,LoVo,1 µg/mL
same,IC50,L1210,0.013 µg/mL
CC(C)[C@@H](C)C1CC1[C@@H](C)[C@H]1CC[C@@H]2[C@]1(C)CC[C@H]1[C@]23C=C[C@]2(C[C@@H](O)CC[C@]12C)OO3 (some centres not stated),Activity,HT-29,1.4 µg/mL
same,Activity,P388,0.4 µg/mL
same,Activity,KB,2.1 µg/mL
same,Activity,A549,2.7 µg/mL
COC(=O)C[C@]1(C)C[C@@](C)(CC(C)CC/C=C/CC/C=C/c2ccccc2)OO1 (some centres not stated),MIC,KB; Homo sapiens,1 µg/mL
same,MIC,LoVo,0.1 µg/mL
same,IC50,L1210,0.0043 µg/mL
COC(=O)[C@@H](C)[C@@H]1CC[C@](C)(CCC(=O)C(C)(C)CCCC(C)=O)OO1 [DIACARPEROXIDE B],IC50,HT-29,> 1 µg/mL
same,IC50,P388,> 1 µg/mL
same,IC50,A549,> 1 µg/mL
CC(=O)CCCC(C)(C)C(=O)CC/C(C)=C/CC[C@@]1(C)CC[C@H]([C@H](C)C(=O)O)OO1 [AIKUPIKOXIDE A],IC50,HT-29,> 1 µg/mL
same,IC50,P388,> 1 µg/mL
same,IC50,A549,> 1 µg/mL
C=C1C(=O)O[C@H]2C[C@](C)(O)CCC[C@](C)(OO)C/C=C/[C@@]3(C)O[C@H]3C[C@@H]12,IC50,P388,0.1 µg/mL
COC(=O)C[C@@]1(C)C[C@@](C)(CC(C)CC/C=C/CC/C=C/c2ccccc2)OO1 (some centres not stated),MIC,KB; Homo sapiens,0.1 µg/mL
same,MIC,LoVo,0.1 µg/mL
same,IC50,L1210,0.003 µg/mL
CCCCCCCC/C=C/C(=O)O[C@@H]1[C@@H](C)[C@@]2(O)[C@H]([C@@H]3C(C)(C)[C@]13OC(C)=O)[C@@H](OO)C(CO)=C[C@]1(O)C(=O)C(C)=C[C@@H]21 [OSTODIN],EC50,P388,≤ 4000 µg/mL
same,EC50,"KB; Homo sapiens, KB",≤ 4000 µg/mL
C=CCCC/C=C/C=C\CCCCCCCC[C@@H]1CC[C@@H]([C@@H]2CC[C@@H](CC(=O)[O-])OO2)O1.[Na+],IC50,HT-29,0.1 µg/mL
same,IC50,P388,0.01 µg/mL
same,IC50,DU-145,0.1 µg/mL
same,IC50,A549,0.1 µg/mL
C/C=C/C=C/CCCCCCCCCCC[C@]1(OC)C=C[C@H](CC(=O)OC)OO1,EC50,P388,> 10 µg/mL
COC(=O)C[C@@]1(C)C[C@@](C)(CC(C)CCCC/C=C/CC/C=C\c2ccccc2)OO1 (some centres not stated),MIC,KB; Homo sapiens,0.1 µg/mL
same,MIC,LoVo,1 µg/mL
same,IC50,L1210,0.29 µg/mL
C[C@H](C/C=C/C(C)(C)OO)[C@H]1CC[C@H]2[C@@H]3CC=C4C[C@@H](O)CC[C@]4(C)[C@H]3CC[C@]12C,EC50,HT-29,1.27 µg/mL
same,EC50,P388,0.22 µg/mL
same,EC50,"KB; Homo sapiens, KB",1.41 µg/mL
same,EC50,A549,1.68 µg/mL
C[C@H](C/C=C/C(C)(C)OO)[C@H]1CC[C@H]2[C@@H]3CC(=O)C4=CC(=O)CC[C@]4(C)[C@H]3CC[C@]12C,EC50,HT-29,1.48 µg/mL
same,EC50,P388,0.53 µg/mL
same,EC50,"KB; Homo sapiens, KB",1.15 µg/mL
same,EC50,A549,0.88 µg/mL
CC(=O)[C@@H]1CC[C@@H](C)[C@@H]2CC[C@]3(C)OO[C@@]12[C@H](OC=O)O3,IC50,[2],91 µM
same,IC80,[2],156 µM
C/C1=C\CC[C@]2(C)O[C@H]([C@@H]3OC(=O)[C@]4(OO)CCO[C@@H]2C[C@H]34)[C@H](C)CCC1 [PLANAXOOL],IC100,L1210,2.4 µg/mL
C/C=C/C=C/CCCCCCCCCCCCC[C@]1(OC)C=C[C@@H](CC(=O)OC)OO1 [XESTIN A],IC50,P388,0.3 µg/mL
COc1cccc2c1C(=O)c1c(O)c3c(c(O)c1C2=O)C[C@@](O)(C(=O)CO)C[C@@H]3O[C@H]1C[C@H](N)[C@H](O)[C@H](C)O1 [DOXORUBICIN],IC50,A549,0.002 µg/mL
